Measured values taken from article PMC8035703, “Effect of Synchronous Versus Sequential Regimens on the Pharmacokinetics and Biodistribution of Regorafenib with Irradiation” (Pharmaceutics, 2021).
Like-named read-outs stand apart in the source and are kept apart here.

Experiments:
Huh-7 cells [1] = assay: Cell viability assay (MTT), Huh-7; type: cell-based, human; settings: for IC50 / viability at 5 µM / viability at 10 µM / viability at 20 µM: Homo sapiens; for IC50: MTT after 24 h, read-out: IC50 (estimated concentration at which 50% of cells were killed); for viability at 5 µM: Huh-7, regorafenib 5 μM; for viability at 10 µM: Huh-7, regorafenib 10 μM; for viability at 20 µM: Huh-7, regorafenib 20 μM
Protocol: (§1) Human hepatoma Huh-7 and Hep G2 cell lines kindly provided by Professor Hu (Taipei Veterans General Hospital, Taiwan) were plated into 96-well plates (1 × 10^3 per well) with serum-containing medium (100 μL) for 1 day. Regorafenib at concentrations of 0, 5, 10 and 20 μmol/L (μM) was added to the plates. Then, the study groups were designed: the concurrent group (1 h after irradiation) or sequential group (24 h after irradiation) with sham RT (RT0 Gy), 2 Gy (RT2 Gy) and 9 Gy (RT9 Gy). Additionally, after 24 h, 20 μL of 5 mg/mL MTT was added to the plates and incubated for 3 h. The supernatant was discarded, the precipitate was dissolved in 200 μL DMSO, and the plates were read with a microplate reader at 570 nm and a reference wavelength of 630 nm.

Hep G2 cells = assay: Cell viability assay (MTT), Hep G2; type: cell-based; settings: Homo sapiens; for IC50: MTT after 24 h, read-out: IC50 (estimated concentration at which 50% of cells were killed); for viability at 5 µM: HepG2, regorafenib 5 μM; for viability at 10 µM: HepG2, regorafenib 10 μM; for viability at 20 µM: HepG2, regorafenib 20 μM
Protocol: as §1

Huh-7 cells [2] = assay: Morphological observation (Liu's stain); type: cell-based, human; settings: regorafenib 0-20 μM with RT
Protocol: Huh-7 cells were treated with regorafenib at concentrations of 0, 5, 10 and 20 μmol/L (μM) in the concurrent and sequential groups with different RT doses. Then, the cells were centrifuged by using Cytospin (Shandon Inc., Pittsburgh, PA). Liu’s A solution and Liu’s B solution were used on glass slides for 45 and 90 s, respectively. Then, a light microscope (Olympus, Tokyo, Japan) was used to observe the Huh-7 cells.

CYP3A4 = tested on: CYP3A4; parameters: method as in PMID 21170960; settings: cited from earlier work

CNC(=O)c1cc(Oc2ccc(NC(=O)Nc3ccc(Cl)c(C(F)(F)F)c3)c(F)c2)ccn1 [regorafenib, Regorafenib]
Effect on viability of Huh-7 cells (in words) (Huh-7 cells [1]; 0-20 μM): inhibited the viability of Huh-7 cells in a dose-dependent manner
IC50 (Huh-7 cells [1]; Huh-7, 24 h, Huh-7, RT0 Gy, S (regorafenib added 24 h following RT)): 12.8 µM
IC50 (Huh-7 cells [1]; Huh-7, 24 h, Huh-7, RT2 Gy, S (regorafenib added 24 h following RT)): 12.1 µM
IC50 (Huh-7 cells [1]; Huh-7, 24 h, Huh-7, RT9 Gy, S (regorafenib added 24 h following RT)): 15.2 µM
IC50 (Huh-7 cells [1]; Huh-7, Huh-7, RT0 Gy, C (regorafenib added 1 h following RT)): 6.56 µM
IC50 (Huh-7 cells [1]; Huh-7, Huh-7, RT2 Gy, C (regorafenib added 1 h following RT)): 6.38 µM
IC50 (Huh-7 cells [1]; Huh-7, Huh-7, RT9 Gy, C (regorafenib added 1 h following RT)): 6.36 µM
viability at 5 µM (Huh-7 cells [1]; Huh-7, RT0 Gy, C): 60.9 ± 1.8%
viability at 5 µM (Huh-7 cells [1]; Huh-7, RT0 Gy, S): 72.6 ± 1%
viability at 5 µM (Huh-7 cells [1]; Huh-7, RT2 Gy, C): 59.8 ± 5.5%
viability at 5 µM (Huh-7 cells [1]; Huh-7, RT2 Gy, S): 59.5 ± 2.7%
viability at 5 µM (Huh-7 cells [1]; Huh-7, RT9 Gy, C): 62.3 ± 14.1%
viability at 5 µM (Huh-7 cells [1]; Huh-7, RT9 Gy, S): 60.2 ± 5.6%
viability at 10 µM (Huh-7 cells [1]; Huh-7, RT0 Gy, C): 35.1 ± 1.6%
viability at 10 µM (Huh-7 cells [1]; Huh-7, RT0 Gy, S): 55.2 ± 1.2%
viability at 10 µM (Huh-7 cells [1]; Huh-7, RT2 Gy, C): 33.9 ± 2.7%
viability at 10 µM (Huh-7 cells [1]; Huh-7, RT2 Gy, S): 46 ± 2.9%
viability at 10 µM (Huh-7 cells [1]; Huh-7, RT9 Gy, C): 34.3 ± 5.3%
viability at 10 µM (Huh-7 cells [1]; Huh-7, RT9 Gy, S): 47.6 ± 3%
viability at 20 µM (Huh-7 cells [1]; Huh-7, RT0 Gy, C): 15.4 ± 1%
viability at 20 µM (Huh-7 cells [1]; Huh-7, RT0 Gy, S): 41.4 ± 0.4%
viability at 20 µM (Huh-7 cells [1]; Huh-7, RT2 Gy, C): 14.4 ± 0.8%
viability at 20 µM (Huh-7 cells [1]; Huh-7, RT2 Gy, S): 36.3 ± 1.4%
viability at 20 µM (Huh-7 cells [1]; Huh-7, RT9 Gy, C): 14.1 ± 0.7%
viability at 20 µM (Huh-7 cells [1]; Huh-7, RT9 Gy, S): 41.1 ± 1.7%
Viability: concurrent regorafenib with RT2 Gy and RT9 Gy vs regorafenib only (in words) (Huh-7 cells [1]; Huh-7 and Hep G2): no synergistic effects
Viability with regorafenib following RT2 Gy and RT9 Gy (in words) (Huh-7 cells [1]; Huh-7 and Hep G2, regorafenib 10 and 20 μM, sequential): higher than the regorafenib-only and concurrent regimen
IC50 (Hep G2 cells; HepG2, 24 h, Hep G2, RT0 Gy, S (regorafenib added 24 h following RT)): 17.7 µM
IC50 (Hep G2 cells; HepG2, 24 h, Hep G2, RT2 Gy, S (regorafenib added 24 h following RT)): 18.9 µM
IC50 (Hep G2 cells; HepG2, 24 h, Hep G2, RT9 Gy, S (regorafenib added 24 h following RT)): 16.8 µM
IC50 (Hep G2 cells; HepG2, Hep G2, RT0 Gy, C (regorafenib added 1 h following RT)): 9.87 µM
IC50 (Hep G2 cells; HepG2, Hep G2, RT2 Gy, C (regorafenib added 1 h following RT)): 10.5 µM
IC50 (Hep G2 cells; HepG2, Hep G2, RT9 Gy, C (regorafenib added 1 h following RT)): 8.43 µM
viability at 5 µM (Hep G2 cells; Hep G2, RT0 Gy, C): 74.6 ± 2.4%
viability at 5 µM (Hep G2 cells; Hep G2, RT0 Gy, S): 82 ± 1.9%
viability at 5 µM (Hep G2 cells; Hep G2, RT2 Gy, C): 73.1 ± 11.7%
viability at 5 µM (Hep G2 cells; Hep G2, RT2 Gy, S): 72.1 ± 1.7%
viability at 5 µM (Hep G2 cells; Hep G2, RT9 Gy, C): 64.7 ± 11.3%
viability at 5 µM (Hep G2 cells; Hep G2, RT9 Gy, S): 71 ± 5.3%
viability at 10 µM (Hep G2 cells; Hep G2, RT0 Gy, C): 51.3 ± 3.1%
viability at 10 µM (Hep G2 cells; Hep G2, RT0 Gy, S): 67 ± 1.3%
viability at 10 µM (Hep G2 cells; Hep G2, RT2 Gy, C): 50.8 ± 7%
viability at 10 µM (Hep G2 cells; Hep G2, RT2 Gy, S): 64.1 ± 1.3%
viability at 10 µM (Hep G2 cells; Hep G2, RT9 Gy, C): 46.7 ± 8.9%
viability at 10 µM (Hep G2 cells; Hep G2, RT9 Gy, S): 64.2 ± 4.3%
viability at 20 µM (Hep G2 cells; Hep G2, RT0 Gy, C): 24.7 ± 1.2%
viability at 20 µM (Hep G2 cells; Hep G2, RT0 Gy, S): 46 ± 3.4%
viability at 20 µM (Hep G2 cells; Hep G2, RT2 Gy, C): 24.5 ± 2.5%
viability at 20 µM (Hep G2 cells; Hep G2, RT2 Gy, S): 42.4 ± 0.8%
viability at 20 µM (Hep G2 cells; Hep G2, RT9 Gy, C): 20.6 ± 1.5%
viability at 20 µM (Hep G2 cells; Hep G2, RT9 Gy, S): 38.5 ± 1.9%
Morphological changes (in words) (Huh-7 cells [2]): Cell shrinkage and pyknosis occurred in a dose-dependent manner
Metabolic pathway (in words) (CYP3A4): metabolized via CYP3A4
